Laboratory results from US7049305B2, “Bile-acid conjugates providing for sustained systemic concentration of drugs” (XenoPort, Inc., priority 2000, dated 2006).

Target: T1, rPEPT1 (Rattus norvegicus, UniProt P51574)
T1 construct: expressed in transfected cells; host or cells: CHO cells
T1 sequence (P51574 1-710): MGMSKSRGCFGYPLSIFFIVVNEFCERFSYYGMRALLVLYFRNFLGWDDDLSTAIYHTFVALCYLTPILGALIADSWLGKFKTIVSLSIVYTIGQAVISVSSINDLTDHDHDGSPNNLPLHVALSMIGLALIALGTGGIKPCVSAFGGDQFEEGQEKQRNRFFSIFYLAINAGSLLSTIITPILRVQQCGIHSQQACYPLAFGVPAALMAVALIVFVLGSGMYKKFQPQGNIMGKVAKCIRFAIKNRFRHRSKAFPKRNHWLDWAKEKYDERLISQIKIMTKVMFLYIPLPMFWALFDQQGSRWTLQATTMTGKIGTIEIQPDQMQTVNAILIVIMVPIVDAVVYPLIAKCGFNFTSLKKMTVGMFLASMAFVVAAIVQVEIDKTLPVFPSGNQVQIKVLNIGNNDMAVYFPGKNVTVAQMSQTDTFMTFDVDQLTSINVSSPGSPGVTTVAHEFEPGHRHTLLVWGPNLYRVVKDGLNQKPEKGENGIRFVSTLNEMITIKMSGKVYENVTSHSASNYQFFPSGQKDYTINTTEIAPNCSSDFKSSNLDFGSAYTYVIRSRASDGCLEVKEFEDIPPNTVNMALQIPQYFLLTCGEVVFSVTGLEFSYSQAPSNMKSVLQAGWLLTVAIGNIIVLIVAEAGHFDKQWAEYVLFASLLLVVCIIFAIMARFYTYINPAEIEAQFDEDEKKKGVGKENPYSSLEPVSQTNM
Assay: Transport-induced currents in Xenopus oocytes expressing rPEPT1
Assay type: cell-based
Settings: response relative to Gly-Sar, test compound 1 mM
Protocol: Rat and human PEPT1 and PEPT2 expressing CHO cell lines were prepared as described in PCT Application WO01/20331. Gabapentin-containing dipeptides were evaluated for interaction with the peptide transporters using a radiolabeled substrate uptake assay in a competitive inhibition format, as described in PCT Application WO01/20331. Transport-induced currents were also measured in Xenopus oocytes transfected with rat and human PEPT1 and PEPT2.

NCC(=O)NCC1(CC(=O)O)CCCCC1 [Gly-Gabapentin]
% Max. (Gly-Sar): 76%
